# Measurements as given in patent EP1311531B1, “STEROID DERIVED ANTIBIOTICS” (Brigham Young University, priority 2000, dated 2002).
# Where two headings read alike, the source gives them in different places.
# Tests used:
# [1] = tested on: Escherichia coli ATCC 25922; conditions: ATCC25922
# Experimental: (§7) FICs can be performed by checkerboard titrations of compounds in one dimension of a microtiter plate, and of antibiotics in the other dimension, for example. The FIC is calculated by looking at the impact of one antibiotic on the MIC of the other and vice versa. […] As used herein, FIC can be determined as follows: FIC = (MIC(compound in combination))/(MIC(compound alone)) + (MIC(antibiotic in combination))/(MIC(antibiotic alone)) [formula]
# E. coli (ATCC 10798) [2] = assay: MIC and MBC measurement; assay type: cell-based, Escherichia coli; conditions: Escherichia coli, ATCC10798, Table 1, E. coli (ATCC 10798); for MBC: read-out: MBC; for MIC: read-out: MIC
# Experimental: (§1) General: Microorganisms. Reference strains were purchased from the American Type Culture Collection (Rockville, MD) or Bactrol disks from Difeo Laboratories (Detroit, MI). […] Bacterial strains were maintained on Mueller-Hinton agar plates, and Candida albicans was maintained on Sabouraud Dextrose agar plates.
# (§2) Aliquots (20 mL) of the homogeneous solution were then poured in sterile plastic petri dishes (100 x 15 mm, Fisher Scientific). Solutions of compounds were made by dissolving the HCl salt of the respective compound into an appropriate amount of deionized and sterilized water followed by microfiltration.
# (§3) Aliquots of 1 mL of the suspension were added to test tubes containing 1 mL TSB and incrementally varied concentrations of cholic acid derivatives and/or erythromycin or novobiocin. […] Additionally, an alliquot from each of the samples showing no measurable turbidity was subcultured on TSA plates (alliquots were diluted to provide fewer than 300 CFU). Colonies that grew on the subculture after overnight incubation were counted and the number of CFU/mL in the samples were calculated. The calculated values were compared to the number of CFU/mL in the original inoculum.
# [3] = tested on: Escherichia coli ATCC 25922; assay: Sensitization to erythromycin, novobiocin or rifampicin (permeabilization, FIC); conditions: for MBC: Escherichia coli, ATCC25922; for concentration required to lower the MIC of erythromycin from 60 µg/mL to 1 µg/mL: Table 5, E. coli (ATCC 25922), with erythromycin; for FIC / concentration required for bacterial growth inhibition: Table 13, with rifampicin (order of b151), Escherichia coli ATCC 25922
# Experimental: as §7
# E. coli (ATCC 10798) [4] = assay: Sensitization to erythromycin or novobiocin (outer membrane permeabilization, FIC); assay type: cell-based, Escherichia coli; conditions: E. coli (ATCC 10798); for MBC: Escherichia coli; for concentration required to lower the MIC of erythromycin from 70 µg/mL to 1 µg/mL: Table 2
# Experimental: (§4) FICs can be performed by checkerboard titrations of compounds in one dimension of a microtiter plate, and of antibiotics in the other dimension, for example. The FIC is calculated by looking at the impact of one antibiotic on the MIC of the other and vice versa. […] Preferably, an FIC of less than 0.5 is obtained for synergism. As used herein, FIC can be determined as follows: FIC = (MIC(compound in combination))/(MIC(compound alone)) + (MIC(antibiotic in combination))/(MIC(antibiotic alone)) [formula]
# (§5) Aliquots of 1 mL of the suspension were added to test tubes containing 1 mL TSB and incrementally varied concentrations of cholic acid derivatives and/or erythromycin or novobiocin. In the sensitization experiments, erythromycin or novobiocin were added 15 minutes later than the cholic acid derivatives. The samples were subjected to stationary incubation at 37°C for 24 hours. Sample turbidity was determined by measuring absorption at 760 nm (HP 8453 UV-Visible Chemstation, Hewlett Packard). Additionally, an alliquot from each of the samples showing no measurable turbidity was subcultured on TSA plates (alliquots were diluted to provide fewer than 300 CFU). Colonies that grew on the subculture after overnight incubation were counted and the number of CFU/mL in the samples were calculated. The calculated values were compared to the number of CFU/mL in the original inoculum.
# They were also tested for the ability to permeabilize the outer membrane of Gram-negative bacteria, causing sensitization to hydrophobic antibiotics that cannot cross the outer membrane. The permeabilization of the outer membrane was measured using erythromycin and novobiocin.
# [5] = tested on: Pseudomonas aeruginosa ATCC 27853; assay: MIC and MBC measurement; assay type: cell-based
# Experimental: as §1, §2, §3
# [6] = tested on: Candida albicans ATCC 90028; assay: MIC and MBC measurement; assay type: cell-based; conditions: ATCC90028, Table 10
# Experimental: as §1, §2, §3
# [7] = tested on: Streptococcus pyogenes ATCC 19615; assay: MIC and MBC measurement; assay type: cell-based; conditions: ATCC19615, Table 10
# Experimental: as §1, §2, §3
# [8] = tested on: Klebsiella pneumonia ATCC 13883; assay: MIC and MBC measurement; assay type: cell-based; conditions: Klebsiella pneumoniae, ATCC13883
# Experimental: as §1, §2, §3
# [9] = tested on: Salmonella typhimurium ATCC 14028; assay: MIC and MBC measurement; assay type: cell-based; conditions: Salmonella enterica
# Experimental: as §1, §2, §3
# [10] = tested on: Klebsiella pneumonia ATCC 13883; assay: Sensitization to erythromycin, novobiocin or rifampicin (permeabilization, FIC); assay type: cell-based, Klebsiella pneumoniae
# [11] = tested on: Pseudomonas aeruginosa ATCC 27853; assay: as above; assay type: cell-based; conditions: for MBC: Pseudomonas aeruginosa; for MBC / concentration required to lower the MIC of erythromycin from 240 µg/mL to 5 µg/mL: Table 7, with erythromycin; for MBC / concentration required to lower the MIC of erythromycin from 240 µg/mL to 5 µg/mL / concentration required to lower the MIC of novobiocin from >500 µg/mL to 1 µg/mL: P. aureginosa (ATCC 27853); for concentration required to lower the MIC of novobiocin from >500 µg/mL to 1 µg/mL: Table 8, with novobiocin
# Experimental: as §4, §5
# (§6) Concentrations of 0.5, 1.0 or 3.0 µg/mL of these antibiotics were used, and the concentrations of the cholic acid derivatives required to inhibit bacterial growth of Gram-negative strains were determined.
# [12] = tested on: Salmonella typhimurium ATCC 14028; assay: as above; assay type: cell-based
# Experimental: as §4, §5, §6
# [13] = ATCC10798, Table 2, with erythromycin
# [14] = ATCC10798, Table 3, with novobiocin
# [15] = ATCC27853, Table 6, P. aureginosa (ATCC 27853)
# [16] = ATCC27853, Table 10, Pseudomonas aeruginosa ATCC 27853
# [17] = Table 12, with novobiocin (order of b151), Klebsiella pneumonia ATCC 13883
# [18] = Table 13, with rifampicin (order of b151), Klebsiella pneumonia ATCC 13883
# [19] = Table 12, with novobiocin (order of b151), Pseudomonas aeruginosa ATCC 27853
# [20] = Table 13, with rifampicin (order of b151), Pseudomonas aeruginosa ATCC 27853^b (footnote b not given)
# [21] = Table 11, with erythromycin (order of b151)
# [22] = Table 12, with novobiocin (order of b151)
SMILES,MBC (E. coli (ATCC 10798) [2]) [µg/mL],MIC (E. coli (ATCC 10798) [2]) [µg/mL],MBC [3] [µg/mL],concentration required to lower the MIC of erythromycin from 60 µg/mL to 1 µg/mL [3] [µg/mL],MBC (E. coli (ATCC 10798) [4]; [13]) [µg/mL],MBC (E. coli (ATCC 10798) [4]; [14]) [µg/mL],concentration required to lower the MIC of erythromycin from 70 µg/mL to 1 µg/mL (E. coli (ATCC 10798) [4]; with erythromycin) [µg/mL],"MBC [5, 15] [µg/mL]","MIC [5, 15] [µg/mL]","MBC [5, 16] [µg/mL]","MIC [5, 16] [µg/mL]",MBC [6] [µg/mL],MIC [6] [µg/mL],MBC [7] [µg/mL],MIC [7] [µg/mL],MBC [8] [µg/mL],MIC [8] [µg/mL],MBC [9] [µg/mL],MIC [9] [µg/mL],FIC ([10]; ATCC13883),also measured
C[C@H](CCCN(C)Cc1ccccc1)[C@H]1CC[C@H]2[C@@H]3[C@H](OCCN)C[C@@H]4C[C@H](OCCN)CC[C@]4(C)[C@H]3C[C@H](OCCN)[C@]12C [Compound 1],34,20,14,2,20,34,2,> 50,15,38,26,> 50,49,4.4,3,> 36,24,> 25,21,0.072,"concentration required for bacterial growth inhibition [1]: 0.35 µg/mL; FIC [3]: 0.099; concentration required for bacterial growth inhibition [3]: 0.74 µg/mL; concentration required for bacterial growth inhibition ([10]; ATCC13883): 1.0 µg/mL; concentration required for bacterial growth inhibition [10, 17]: 4.7 µg/mL; FIC [10, 18]: 0.043; concentration required for bacterial growth inhibition [10, 18]: 0.40 µg/mL; FIC ([11]; ATCC27853): 0.29; concentration required for bacterial growth inhibition ([11]; ATCC27853): 6.6 µg/mL; MBC ([11]; ATCC27853): 45 µg/mL; concentration required to lower the MIC of erythromycin from 240 µg/mL to 5 µg/mL [11]: 8 µg/mL; concentration required to lower the MIC of novobiocin from >500 µg/mL to 1 µg/mL [11]: 6 µg/mL; concentration required for bacterial growth inhibition [11, 19]: 3.9 µg/mL; FIC [11, 20]: 0.096; FIC [12, 21]: 0.19; concentration required for bacterial growth inhibition [12, 21]: 3.6 µg/mL; FIC [12, 22]: 0.22; concentration required for bacterial growth inhibition [12, 22]: 4.4 µg/mL"
C[C@H](CCCN(C)Cc1ccccc1)[C@H]1CC[C@H]2[C@@H]3[C@H](OCCCN)C[C@@H]4C[C@H](OCCCN)CC[C@]4(C)[C@H]3C[C@H](OCCCN)[C@]12C [Compound 2],16,7,5,1,10,16,1,40,9,> 17,11,42,30,2.3,2,17,14,16,13,0.048,"concentration required for bacterial growth inhibition [1]: 0.33 µg/mL; FIC [3]: 0.22; concentration required for bacterial growth inhibition [3]: 0.80 µg/mL; concentration required for bacterial growth inhibition ([10]; ATCC13883): 0.25 µg/mL; concentration required for bacterial growth inhibition [10, 17]: 0.49 µg/mL; FIC [10, 18]: 0.035; concentration required for bacterial growth inhibition [10, 18]: 0.12 µg/mL; FIC ([11]; ATCC27853): 0.25; concentration required for bacterial growth inhibition ([11]; ATCC27853): 2.4 µg/mL; MBC ([11]; ATCC27853): 25 µg/mL; concentration required to lower the MIC of erythromycin from 240 µg/mL to 5 µg/mL [11]: 4 µg/mL; concentration required to lower the MIC of novobiocin from >500 µg/mL to 1 µg/mL [11]: 4 µg/mL; concentration required for bacterial growth inhibition [11, 19]: 2.9 µg/mL; FIC [11, 20]: 0.086; FIC [12, 21]: 0.17; concentration required for bacterial growth inhibition [12, 21]: 2.0 µg/mL; FIC [12, 22]: 0.36; concentration required for bacterial growth inhibition [12, 22]: 4.5 µg/mL"
C[C@H](CCCN(C)Cc1ccccc1)[C@H]1CC[C@H]2[C@@H]3[C@H](OCCCNC(=N)N)C[C@@H]4C[C@H](OCCCNC(=N)N)CC[C@]4(C)[C@H]3C[C@H](OCCCNC(=N)N)[C@]12C [Compound 5],4,2,1.5,1.5,3,4,1,15,6,9.9,5.9,50,11,2.1,2,6.7,3,3.8,2.2,0.080,"FIC [1]: 0.31; concentration required for bacterial growth inhibition ([10]; ATCC13883): 0.15 µg/mL; FIC ([11]; ATCC27853): 0.42; concentration required for bacterial growth inhibition ([11]; ATCC27853): 2.3 µg/mL; MBC ([11]; ATCC27853): 10 µg/mL; concentration required to lower the MIC of erythromycin from 240 µg/mL to 5 µg/mL [11]: 3 µg/mL; concentration required to lower the MIC of novobiocin from >500 µg/mL to 1 µg/mL [11]: 6 µg/mL; FIC [12, 21]: 0.23; concentration required for bacterial growth inhibition [12, 21]: 0.46 µg/mL"
